For experiment [1], the target named is EZH2 (rPRC2) (Homo sapiens, UniProt Q15910). Description: EZH2 assay: rPRC2, biotinylated oligonucleosomes, 3H SAM methyl transfer (FlashPlate scintillation). The note with it: biotinylated oligonucleosome substrate. Format: biochemical.
Experiment [2] has as its target Y641N EZH2 (Homo sapiens, UniProt Q15910, Y641N). Description: Y641N EZH2 assay: as EZH2 assay, with reconstituted H3K27Me2 oligonucleosomes as substrate. In kind it is biochemical.
[3] abbreviates: EZH2 IC50, wild-type EZH2 (rPRC2).
The mark [4] stands for this setting: Y641N EZH2 IC50, Y641N mutant EZH2, H3K27Me2 oligonucleosome substrate.
Setting [5] is: wild-type EZH2 (rPRC2), read-out: EZH2 IC50.
The mark [6] stands for this setting: Y641N mutant EZH2, H3K27Me2 oligonucleosome substrate, read-out: Y641N EZH2 IC50.

Where two headings read alike, the source gives them in different places.

Chain of EZH2 (rPRC2) (Q15910 whole entry): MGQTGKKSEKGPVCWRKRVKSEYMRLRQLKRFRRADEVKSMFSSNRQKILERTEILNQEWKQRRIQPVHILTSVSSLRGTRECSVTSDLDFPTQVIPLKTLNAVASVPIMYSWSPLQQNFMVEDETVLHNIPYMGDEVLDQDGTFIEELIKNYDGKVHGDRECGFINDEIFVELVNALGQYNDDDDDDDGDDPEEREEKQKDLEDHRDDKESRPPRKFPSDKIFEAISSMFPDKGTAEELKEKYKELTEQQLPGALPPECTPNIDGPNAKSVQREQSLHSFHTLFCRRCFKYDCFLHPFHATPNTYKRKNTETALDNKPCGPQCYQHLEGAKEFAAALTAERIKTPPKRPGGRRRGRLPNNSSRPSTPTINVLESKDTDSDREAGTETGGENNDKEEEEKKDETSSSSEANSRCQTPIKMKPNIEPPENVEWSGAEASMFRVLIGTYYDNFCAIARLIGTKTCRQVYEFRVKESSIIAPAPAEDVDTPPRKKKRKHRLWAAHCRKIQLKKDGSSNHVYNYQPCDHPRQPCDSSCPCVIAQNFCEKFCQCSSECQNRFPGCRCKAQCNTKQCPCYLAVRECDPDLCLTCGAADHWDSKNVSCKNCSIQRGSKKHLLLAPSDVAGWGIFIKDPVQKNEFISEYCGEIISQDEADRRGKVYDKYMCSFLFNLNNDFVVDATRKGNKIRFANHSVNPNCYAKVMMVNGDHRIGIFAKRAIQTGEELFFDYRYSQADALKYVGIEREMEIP
Chain of EZH2 (rPRC2) (O75530 whole entry partner): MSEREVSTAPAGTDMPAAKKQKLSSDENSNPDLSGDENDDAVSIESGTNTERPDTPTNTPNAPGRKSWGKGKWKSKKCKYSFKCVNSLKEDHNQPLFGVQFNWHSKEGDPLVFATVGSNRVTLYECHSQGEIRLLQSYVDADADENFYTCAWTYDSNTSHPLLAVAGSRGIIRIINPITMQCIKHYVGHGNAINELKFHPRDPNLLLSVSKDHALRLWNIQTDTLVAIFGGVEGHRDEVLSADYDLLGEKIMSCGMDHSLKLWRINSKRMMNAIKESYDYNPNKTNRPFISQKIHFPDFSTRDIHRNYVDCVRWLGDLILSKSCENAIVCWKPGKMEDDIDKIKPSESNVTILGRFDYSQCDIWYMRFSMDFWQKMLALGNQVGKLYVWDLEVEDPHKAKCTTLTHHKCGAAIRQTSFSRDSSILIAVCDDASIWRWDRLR
Chain of EZH2 (rPRC2) (Q15022 whole entry partner): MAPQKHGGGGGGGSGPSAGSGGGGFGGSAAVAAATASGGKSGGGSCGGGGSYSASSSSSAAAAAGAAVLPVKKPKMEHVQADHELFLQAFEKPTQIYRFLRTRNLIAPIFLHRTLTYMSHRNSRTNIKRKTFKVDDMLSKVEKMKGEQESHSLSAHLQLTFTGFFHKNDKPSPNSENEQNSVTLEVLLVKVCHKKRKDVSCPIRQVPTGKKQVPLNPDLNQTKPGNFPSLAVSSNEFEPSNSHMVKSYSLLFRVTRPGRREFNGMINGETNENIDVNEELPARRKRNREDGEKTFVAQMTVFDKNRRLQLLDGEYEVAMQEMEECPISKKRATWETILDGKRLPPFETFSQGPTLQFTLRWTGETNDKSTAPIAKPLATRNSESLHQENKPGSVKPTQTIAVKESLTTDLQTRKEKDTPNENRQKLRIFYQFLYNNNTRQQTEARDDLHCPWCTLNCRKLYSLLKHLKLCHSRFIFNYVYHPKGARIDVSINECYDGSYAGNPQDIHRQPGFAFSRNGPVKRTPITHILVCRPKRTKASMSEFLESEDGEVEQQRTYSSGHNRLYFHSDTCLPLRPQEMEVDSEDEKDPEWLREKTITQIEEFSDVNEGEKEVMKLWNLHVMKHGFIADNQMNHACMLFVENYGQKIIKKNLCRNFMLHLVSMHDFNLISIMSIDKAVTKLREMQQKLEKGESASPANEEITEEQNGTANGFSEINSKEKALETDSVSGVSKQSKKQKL
Chain of Y641N EZH2 (Q15910 whole entry Y641N): as the sequence (Q15910 whole entry) above, with Y641N counted along it
Chain of Y641N EZH2 (O75530 whole entry partner): as the sequence (O75530 whole entry partner) above
Chain of Y641N EZH2 (Q15022 whole entry partner): as the sequence (Q15022 whole entry partner) above

Usually IC50 stands for the concentration at which inhibition is half-maximal. In the case of `CC[C@@H](C)n1c(C)c(C(=O)NCc2c(C)cc(C)[nH]c2=O)c2cnc(C)nc21` [Compound 200, (R)-7-(sec-butyl)-N-((4,6-dimethyl-2-oxo-1,2-dihydropyridin-3-yl)methyl)-2,6-dimethyl-7H-pyrrolo[2,3-d]pyrimidine-5-carboxamide], the IC50 in experiment [1] (setting [3]) was 100 to 1000 nM; in experiment [2] (setting [4]) it was 1000 to 10000 nM.
Take `Cc1cc(C)c(CNC(=O)c2c(C)n(C3CCOCC3)c3ncccc23)c(=O)[nH]1` [Compound 244, N-((4,6-dimethyl-2-oxo-1,2-dihydropyridin-3-yl)methyl)-2-methyl-1-(tetrahydro-2H-pyran-4-yl)-1H-pyrrolo[2,3-b]pyridine-3-carboxamide]: the IC50 in experiment [1] (setting [3]) was in the range of 100 to 1000 nM; in experiment [2] (setting [4]), 1000 to 10000 nM.
Regarding `Cc1cc(C)c(CNC(=O)c2c(C)n(CC3(C)COC3)c3ccccc23)c(=O)[nH]1` [Compound 246, N-((4,6-dimethyl-2-oxo-1,2-dihydropyridin-3-yl)methyl)-2-methyl-1-((3-methyloxetan-3-yl)methyl)-1H-indole-3-carboxamide], the IC50 in experiment [1] (setting [3]) and in experiment [2] (setting [4]) was 100 to 1000 nM each time.
For `CNC(=O)c1cccc(C(C)n2c(C)c(C(=O)NCc3c(OC)cc(C)[nH]c3=O)c3cccnc32)c1` (stereo not drawn) [Compound 263, N-((4-methoxy-6-methyl-2-oxo-1,2-dihydropyridin-3-yl)methyl)-2-methyl-1-(1-(3-(methylcarbamoyl)phenyl)ethyl)-1H-pyrrolo[2,3-b]pyridine-3-carboxamide], the results for the 50% inhibitory concentration (IC50) in experiment [1] (setting [5]) and in experiment [2] (setting [6]) were below 100 nM and 100 to 1000 nM, respectively.
As for `COc1cc(C)[nH]c(=O)c1CNC(=O)c1c(C)n(C(C)C(OC)c2ccccc2)c2ncccc12` (stereo not drawn) [Compound 265, 1-(1-methoxy-1-phenylpropan-2-yl)-N-((4-methoxy-6-methyl-2-oxo-1,2-dihydropyridin-3-yl)methyl)-2-methyl-1H-pyrrolo[2,3-b]pyridine-3-carboxamide], the IC50 is below 100 nM in experiment [1] (setting [5]) and 100 to 1000 nM in experiment [2] (setting [6]).
`Cc1cc(C)c(CNC(=O)c2c(C)n(C(C)C(C)(C)O)c3ncccc23)c(=O)[nH]1` (stereo not drawn) [Compound 271, N-((4,6-dimethyl-2-oxo-1,2-dihydropyridin-3-yl)methyl)-1-(3-hydroxy-3-methylbutan-2-yl)-2-methyl-1H-pyrrolo[2,3-b]pyridine-3-carboxamide]: the IC50 in experiment [1] (setting [3]) and in experiment [2] (setting [4]) was 1000 to 10000 nM throughout.
For the compound `COc1cc(C)[nH]c(=O)c1CNC(=O)c1c(C)n([C@@H](C)c2ccccc2)c2ncccc12` [Compound 276, (S)-N-((4-methoxy-6-methyl-2-oxo-1,2-dihydropyridin-3-yl)methyl)-2-methyl-1-(1-phenylethyl)-1H-pyrrolo[2,3-b]pyridine-3-carboxamide], the IC50 in experiment [1] (setting [3]) and in experiment [2] (setting [4]) was below 100 nM throughout.
Consider `COC[C@H](C)n1c(C)c(C(=O)NCc2c(OC)cc(C)[nH]c2=O)c2cncnc21` [Compound 287, (S)-N-((4-methoxy-6-methyl-2-oxo-1,2-dihydropyridin-3-yl)methyl)-7-(1-methoxypropan-2-yl)-6-methyl-7H-pyrrolo[2,3-d]pyrimidine-5-carboxamide], for which the results for the IC50 in experiment [1] (setting [3]) and in experiment [2] (setting [4]) were 100 to 1000 nM and 1000 to 10000 nM, respectively.
The matching figures for `CCC(OC)C(C)n1c(C)c(C(=O)NCc2c(OC)cc(C)[nH]c2=O)c2cccnc21` (stereo not drawn) [Compound 293, N-((4-methoxy-6-methyl-2-oxo-1,2-dihydropyridin-3-yl)methyl)-1-(3-methoxypentan-2-yl)-2-methyl-1H-pyrrolo [2,3-b] pyridine-3-carboxamide]: below 100 nM and 100 to 1000 nM.
Turning to `COc1cc(C)[nH]c(=O)c1CNC(=O)c1c(C)n(C(C)CC(N)=O)c2ncccc12` (stereo not drawn) [Compound 296, 1-(4-amino-4-oxobutan-2-yl)-N-((4-methoxy-6-methyl-2-oxo-1,2-dihydropyridin-3-yl)methyl)-2-methyl-1H-pyrrolo[2,3-b]pyridine-3-carboxamide], the half-inhibitory concentration (IC50) is 100 to 1000 nM in experiment [1] (setting [5]) and 1000 to 10000 nM in experiment [2] (setting [6]).
Take `CCC(OC)C(C)n1c(C)c(C(=O)NCc2c(OC)cc(C)[nH]c2=O)c2ccccc21` (stereo not drawn) [Compound 299, N-((4-methoxy-6-methyl-2-oxo-1,2-dihydropyridin-3-yl)methyl)-1-(3-methoxypentan-2-yl)-2-methyl-1H-indole-3-carboxamide]: the half-inhibitory concentration (IC50) in experiment [1] (setting [3]) and in experiment [2] (setting [4]) was below 100 nM in each case.
As for `COc1cc(C)[nH]c(=O)c1CNC(=O)c1c(C)n(C(C)C(OC)C(F)(F)F)c2ncccc12` (stereo not drawn) [Compound 312, N-((4-methoxy-6-methyl-2-oxo-1,2-dihydropyridin-3-yl)methyl)-2-methyl-1-(4,4,4-trifluoro-3-methoxybutan-2-yl)-1H-pyrrolo [2,3-b] pyridine-3-carboxamide], the IC50 in experiment [1] (setting [3]) and in experiment [2] (setting [4]) was 100 to 1000 nM in each case.
`COC(C)C(C)n1c(C)c(C(=O)NCc2c(C)cc(C)[nH]c2=O)c2ccc(S(C)(=O)=O)cc21` (stereo not drawn) [Compound 322, N-((4,6-dimethyl-2-oxo-1,2-dihydropyridin-3-yl)methyl)-1-(3-methoxybutan-2-yl)-2-methyl-6-(methylsulfonyl)-1H-indole-3-carboxamide]: the IC50 in experiment [1] (setting [3]) and in experiment [2] (setting [4]) was 100 to 1000 nM in each case.
As for `COc1cc(C)[nH]c(=O)c1CNC(=O)c1c(C)n(C(C)C(C)OC)c2cc(S(C)(=O)=O)ccc12` (stereo not drawn) [Compound 323, N-((4-methoxy-6-methyl-2-oxo-1,2-dihydropyridin-3-yl)methyl)-1-(3-methoxybutan-2-yl)-2-methyl-6-(methylsulfonyl)-1H-indole-3-carboxamide], the IC50 in experiment [1] (setting [3]) was below 100 nM; in experiment [2] (setting [4]), 100 to 1000 nM.
For `COc1cc(C)[nH]c(=O)c1CNC(=O)c1c(C)n(C(=O)CC(C)C)c2ccccc12` [Compound 329, N-((4-methoxy-6-methyl-2-oxo-1,2-dihydropyridin-3-yl)methyl)-2-methyl-1-(3-methylbutanoyl)-1H-indole-3-carboxamide], the concentration for half-maximal inhibition (IC50) in experiment [1] (setting [5]) and in experiment [2] (setting [6]) was 100 to 1000 nM throughout.
Take `COc1cc(C)[nH]c(=O)c1CNC(=O)c1c(C)n(C2CCN(C(=O)OC(C)(C)C)CC2)c2ccccc12` [Compound 331, tert-butyl 4-(3-(((4-methoxy-6-methyl-2-oxo-1,2-dihydropyridin-3-yl)methyl)carbamoyl)-2-methyl-1H-indol-1-yl)piperidine-1-carboxylate]: the 50% inhibitory concentration (IC50) in experiment [1] (setting [3]) was below 100 nM; in experiment [2] (setting [4]), 100 to 1000 nM.
`COc1cc(C)[nH]c(=O)c1CNC(=O)c1c(C)n(C(C)C2COCCO2)c2ccccc12` (stereo not drawn) [Compound 348, 1-(1-(1,4-dioxan-2-yl)ethyl)-N-((4-methoxy-6-methyl-2-oxo-1,2-dihydropyridin-3-yl)methyl)-2-methyl-1H-indole-3-carboxamide]: the concentration for half-maximal inhibition (IC50) in experiment [1] (setting [3]) and in experiment [2] (setting [4]) was below 100 nM in each case.
Regarding `COc1cc(C)[nH]c(=O)c1CNC(=O)c1c(C)n(C(C)C(C)S(C)(=O)=O)c2ccccc12` (stereo not drawn) [Compound 350, N-((4-methoxy-6-methyl-2-oxo-1,2-dihydropyridin-3-yl)methyl)-2-methyl-1-(3-(methylsulfonyl)butan-2-yl)-1H-indole-3-carboxamide], the concentration for half-maximal inhibition (IC50) in experiment [1] (setting [3]) and in experiment [2] (setting [4]) was below 100 nM throughout.
With `COc1cc(C)[nH]c(=O)c1CNC(=O)c1c(C)n(C(C)[C@H]2CNCCO2)c2ncncc12` (stereo partly drawn) [Compound 351, N-((4-methoxy-6-methyl-2-oxo-1,2-dihydropyridin-3-yl)methyl)-6-methyl-7-(1-((R)-morpholin-2-yl)ethyl)-7H-pyrrolo[2,3-d]pyrimidine-5-carboxamide], the IC50 was below 100 nM in experiment [1] (setting [3]) and 100 to 1000 nM in experiment [2] (setting [4]).
Consider `COc1cc(C)[nH]c(=O)c1CNC(=O)c1c(C)n(C(=O)C2CCOCC2)c2ccccc12` [Compound 372, N-((4-methoxy-6-methyl-2-oxo-1,2-dihydropyridin-3-yl)methyl)-2-methyl-1-(tetrahydro-2H-pyran-4-carbonyl)-1H-indole-3-carboxamide], for which the half-inhibitory concentration (IC50) in experiment [1] (setting [5]) lay within 100 to 1000 nM. The “Y641N EZH2 IC50” value in experiment [2] (Y641N mutant EZH2, H3K27Me2 oligonucleosome substrate) is “*(0.5 uM)”.
Regarding “(±)-N-((6-(hydroxymethyl)-4-methoxy-2-oxo-1,2-dihydropyridin-3-yl)methyl)-1-(1-methoxypropan-2-yl)-2-methyl-1H-pyrrolo[2,3-b]pyridine-3-carboxamide [Compound 262]”, the figures for the half-maximal inhibitory concentration (IC50) in experiment [1] (setting [5]) and in experiment [2] (setting [6]) were 100 to 1000 nM and 1000 to 10000 nM, respectively.
